Test results published in patent publication US8168650B2, “Therapeutic uses of bicyclic ligands of sigma 2 receptor” (priority 2006, dated 2012).
Entries after “also recorded” stand apart in the source; their conditions may differ. Where two headings read alike, the source gives them in different places.

How the values were obtained:
[1] = system: EMT-6 cells; test: Annexin V labeling by flow cytometry in EMT-6 cells; type: cell-based, mouse
From the text: Detection and quantification of apoptosis by flow cytometry. The early stages of apoptosis are characterized by translocation of phosphatidyl serine (PS) from the inner surface of the plasma membrane to the outer surface of the membrane. Annexin V, a protein with high affinity for PS, was used to detect the externalization of PS. In these experiments cell death was quantified flow cytometrically using both an annexin V assay (Apoptosis Detection Kit, R &D Systems, Minneapolis, Minn.) and a TUNEL assay (Apodirect Kit, BD Biosciences Pharmingen, San Diego, Calif.). All of the data was collected and analyzed using a FACS scan flow cytometer (Becton Dickinson, Fullerton, Calif.).
An early step in the induction of apoptosis is the membrane inversion of phosphatidyl serine (PS), which can be detected by the binding of annexin V to the cell surface. In early apoptosis, the cell membrane integrity is still intact, and the fluorescent marker, 7AAD, is excluded from the cell. Therefore, early apoptotic cells are annexin V positive and 7AAD negative. As apoptosis progresses, the cell membrane integrity is lost, and the cells become annexin V positive and 7AAD positive. EMT-6 cells treated with WC-II-26, SV119, and RHM-1-138 were analyzed by flow cytometry, and both early apoptotic death and late apoptotic death were detected after treatment with these three σ2 selective ligands (FIG. 7A). The percentage of EMT-6 cells with positive annexin V staining was 96.6±2.7%, 73.5±2.4%, and 48±6.4% after treatment with WCII-26, SV119 and RHM-I-138, respectively (FIG. 7B).

[2] = system: caspase-3/7; test: Caspase-3/7 whole cell assay in EMT-6 cells; type: cell-based, mouse; conditions: EMT-6, 40 μM, 24 h
Protocol: Detection of intracellular cellular caspase-3/7 activity. The activation of endogenous caspase-3/7 by the sigma ligands was measured using the CellProbe HT caspase-3/7 whole cell assay (Beckman Coulter, Fullerton, Calif.). The cell permeable, nonfluorescent bisamide substrate, Z-DEVD-R110, was added to the intact cells to detect apoptosis. Upon specific cleavage by caspase-3/7, Z-DEVD-R110 is converted to a fluorescent compound, and the fluorescent signal can be measured as follows. After adding the substrate, Z-DEVD-R110, to the cells treated with a sigma ligand, the plate was incubated for an additional 1.5-2 hour, and the resulting fluorescence measured using a Victor 3 microplate fluorometer at excitation and emission wavelengths of 485 nm and 535 nm, respectively.
In these experiments, to assess whether caspase-like activity was involved in the cytotoxic pathway, a caspase-3/7 whole cell assay was performed. This assay has advantages over other cell-based assays which use a cell lysate to monitor the activity of caspase-3/7. By not disrupting the cells, the whole cell assay tends to minimize the background noise contributed by non-specific protease activity in the cell lysates. Consequently, a greater specificity for the caspase-3/7 activity can be achieved with the whole cell assay. […] The accumulation of the fluorescent product was quantified using a fluorescence microplate reader. […]

[3] = target: T1, σ1 receptor (Cavia porcellus, UniProt Q60492)
T1 sequence (Q60492 whole entry): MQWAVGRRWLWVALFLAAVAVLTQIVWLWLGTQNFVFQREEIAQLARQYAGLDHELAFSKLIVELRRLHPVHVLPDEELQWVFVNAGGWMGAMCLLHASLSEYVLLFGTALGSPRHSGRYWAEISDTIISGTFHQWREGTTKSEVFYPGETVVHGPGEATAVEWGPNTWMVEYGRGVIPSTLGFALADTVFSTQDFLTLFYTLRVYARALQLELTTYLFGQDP
Protocol: (§1) In vitro binding studies were conducted in order to determine the affinity of the target compounds at σ1 and σ2 receptors.
(§2) In this example, test compounds were dissolved in N,N-dimethylformamide (DMF), dimethylsulfoxide (DMSO) or ethanol and then diluted in 50 mM Tris-HCl, pH 7.4 buffer containing 150 mM NaCl and 100 mM EDTA. Membrane homogenates were made from guinea pig brain for σ1 binding assays and rat liver for σ2 binding assays. Membrane homogenates were diluted with 50 mM Tris-HCl buffer, pH 8.0, and incubated at 25° C. in a total volume of 150 μL in 96-well plates with the radioligand and test compounds with concentrations ranging from 0.1 nM to 10 μM. After incubation was completed, the reactions were terminated by the addition of 150 μL of ice-cold wash buffer (10 mM Tris-HCl, 150 mM NaCl, pH 7.4) using a 96-channel transfer pipette (Fisher Scientific, Pittsburgh, Pa.), and the samples harvested and filtered rapidly through 96-well fiberglass filter plate (Millipore, Billerica, Mass.) that had been presoaked with 100 μL of 50 mM Tris-HCl buffer, pH 8.0, for 1 h. Each filter was washed three times with 200 μL of ice cold wash buffer.
(§3) Ki values were calculated using the method of Cheng and Prusoff20 and represent mean values±SEM.

[4] = target: T1, σ1 receptor; test: biochemical
Protocol: as §1, §2, §3

[5] = system: Panc-02 tumors; test: Antitumor effect in vivo: tumor growth and survival, Panc-02 model; set-up: species or system C57BL/6 mice; conditions: listed as WC26
Protocol: Mean tumor diameter was measured three times each week.

[6] = system: Panc-02 tumor allografts; test: In vivo apoptosis (FACS, active caspase-3) in tumor and organs of Panc-02 bearing mice
Protocol: Female C57BL/6 mice (8-12 weeks old) were purchased from the NCI and acclimated for at least 1 week before tumor implantation. All mice were injected in the right flank with 200 μl of a single cell suspension containing 1.0×10^6 Panc-02 cells. Treatment of the tumors started 2 weeks after tumor implantation when their size reached a mean diameter of 5-8 mm. To evaluate the effect of sigma-2 receptor ligands both systemically and on tumor in vivo, several mice were sacrificed after a single treatment. Necropsy was performed and single cell suspensions were prepared from retrieved organs. The extent of apoptosis in these cells was measured by FACS (described above).

[7] = Toxicity in treated mice (serum biochemistry, immunohistochemistry)
Protocol: Female C57BL/6 mice (8-12 weeks old) were purchased from the NCI and acclimated for at least 1 week before tumor implantation. […] For the survival study, mice (N=10 per group) were treated with sigma-2 receptor ligand at the stated concentration or vehicle control once a day for 5 days.

[8] = system: pancreatic cancer cell lines (Panc-02, CFPAC-1, AsPC-1, Panc-1); test: Apoptosis in pancreas cancer cell lines (TUNEL / cleaved caspase-3, flow cytometry); type: cell-based, mouse, human; conditions: 24 hours incubation
Protocol: Tumor cells were seeded at a density of approximately 0.2×10^6 cells per well in 12-well plates in 1.0 ml culture medium. Cells were split and pre-incubated at 37° C. in humidified 5% CO2 for more than 24 hours (Panc-02) and 48 hours (CFPAC-1, AsPC-1, Panc-1) to insure uniform growth conditions. Compounds were dissolved in DMSO and added to the culture medium at the concentrations indicated. The final concentration of DMSO in the cell culture medium was less than 1%. The cells were then incubated for 24 hours at 37° C. in humidified 5% CO2. The extent of apoptosis was subsequently measured as previously reported (Guelen, L., et al., Oncogene 2004, 23: 1153-1165). Briefly, staining was performed on trypsin-EDTA treated cultures that had been fixed with 1% paraformaldehyde and 90% methanol. Cell pellets were resuspended in TUNEL reagent (APO-BRDU kit, San Diego, Calif.) or cleaved caspase-3 antibody (Cell Signaling Technology, Inc. Boston, Mass.) and incubated overnight at room temperature (TUNEL) or 4° C. (cleaved caspase-3). After washing, cells were resuspended in fluorescein antibody or 7-AAD buffer and incubated for 1 hour at room temperature. Cell-associated fluorescence was determined using a flow cytometry (FACScan, BD Biosciences) and analyzed with CellQuest software (BD Biosciences).
At the highest dose tested (10 μM), all sigma-2 receptor ligands induced an additional 10-20% of the cells to undergo apoptosis (FIG. 15A). […] The pan-caspase inhibitor (Z-VAD-fmk) and caspase-3/7 inhibitor (DEVD-CHO) prevented sigma-2 receptor ligand-induced apoptosis in panc-02 cells, while the caspase-1 inhibitor (YVAD-CHO) had no effect (FIG. 15B).

[9] = system: EMT-6 cells; test: TUNEL assay, enhancement of Dox-induced apoptosis in EMT-6 cells; type: cell-based, mouse
Protocol: In these experiments, a TUNEL assay was used to detect apoptotic cells with damaged DNA strands. […] Furthermore, EMT-6 cells treated with Dox at 30 nM yielded only 10% TUNEL-positive cells. However, when EMT-6 cells were treated with 2 μM WC-II-26 plus 30 nM Dox, the percentage of TUNEL-positive cells rose to 43.3%.

Row | Structure (SMILES) | percentage of EMT-6 cells with positive annexin V staining ([1]; 40 μM, 16 h) [%] | increase of endogenous caspase-3/7 activity compared with untreated cells [2] [fold] | Ki [3] [µM] | Ki [4] [µM] | tumor growth / tumor size versus vehicle control ([5]; 50 or 100 mg/kg (1 or 2 mg/day) intraperitoneal once a day for five days) | survival (tumor diameter 15 mm or ulceration as endpoint) ([5]; 50 or 100 mg/kg (1 or 2 mg/day) once a day for five days, p=0.002) | tumor cells active caspase-3 positive ([6]; single 2 mg dose, Panc-02 tumor allografts, p<0.0001) | apoptosis in pancreas and livers ([6]; systemic administration) [%] | apoptosis in brain, lung, kidney or spleen (active caspase-3, FACS) ([6]; systemic administration, any of the concentrations tested) | percentage of EMT-6 cells with positive annexin V staining ([1]; 40 μM, 48 h) [%] | acute, systemic toxicity based on blood chemistry parameters ([7]; 50 or 100 mg/kg once a day for five days) | acute toxicity on immunohistochemical evaluation of normal tissues ([7]; after WC26 treatment (data not shown)) | toxicity in serum biochemistry data ([7]; after systemic administration) | effect on serum biochemistry at the highest dose tested ([7]; values still within reference ranges) | apoptosis in all pancreas cancer cell lines tested [8] | TUNEL-positive cells ([9]; EMT-6, 2 μM WC-II-26 alone) | TUNEL-positive cells ([9]; EMT-6, 2 μM WC-II-26 plus 30 nM Dox) [%] | percentage of EMT-6 cells with positive annexin V staining ([1]; 100 μM, 16 h) [%]
1 | O[C@@H](CN1C2CCC1CC(c1ccccc1)C2)c1cccc(Br)c1 (some centres unmarked) [RHM-I-138] | 48±6.4 | 2 | 0.544 |  |  |  |  |  |  |  |  |  |  |  |  |  |  | 
2 | COc1ccc(C)cc1NC(=O)O[C@H]1C[C@H]2CCC[C@@H](C1)N2Cc1ccc(N(C)C)cc1 [WC-II-26] |  |  |  | 5.57 | tumors shrank; also recorded: smaller tumors | significant survival benefit; also recorded: compared favorably | up to 50% | < 10 | did not induce apoptosis | 96.6±2.7 | no acute, systemic toxicity | no acute toxicity | no apparent toxicity | elevated AST and depressed creatinine and glucose levels | dose-dependent apoptosis | less than 5% | 43.3 | 
3 | COc1ccc(C)cc1NC(=O)OC1CC2CCCC(C1)N2CCCCCCN (centres unmarked) [SV119] |  | 2 |  |  |  |  |  |  |  |  |  |  |  |  | dose-dependent apoptosis |  |  | 73.5±2.4
